{
  "source": "paper PMC7060200",
  "about": "“Selective Binding of HSC70 and its Co-Chaperones to Structural Hotspots on CFTR” (Scientific Reports, 2020)",
  "key": {"HSC70 [1]": {"target": "T1, HSC70 (Homo sapiens, UniProt P11142)", "T1 construct": "made in house", "T1 sequence (P11142 whole entry)": "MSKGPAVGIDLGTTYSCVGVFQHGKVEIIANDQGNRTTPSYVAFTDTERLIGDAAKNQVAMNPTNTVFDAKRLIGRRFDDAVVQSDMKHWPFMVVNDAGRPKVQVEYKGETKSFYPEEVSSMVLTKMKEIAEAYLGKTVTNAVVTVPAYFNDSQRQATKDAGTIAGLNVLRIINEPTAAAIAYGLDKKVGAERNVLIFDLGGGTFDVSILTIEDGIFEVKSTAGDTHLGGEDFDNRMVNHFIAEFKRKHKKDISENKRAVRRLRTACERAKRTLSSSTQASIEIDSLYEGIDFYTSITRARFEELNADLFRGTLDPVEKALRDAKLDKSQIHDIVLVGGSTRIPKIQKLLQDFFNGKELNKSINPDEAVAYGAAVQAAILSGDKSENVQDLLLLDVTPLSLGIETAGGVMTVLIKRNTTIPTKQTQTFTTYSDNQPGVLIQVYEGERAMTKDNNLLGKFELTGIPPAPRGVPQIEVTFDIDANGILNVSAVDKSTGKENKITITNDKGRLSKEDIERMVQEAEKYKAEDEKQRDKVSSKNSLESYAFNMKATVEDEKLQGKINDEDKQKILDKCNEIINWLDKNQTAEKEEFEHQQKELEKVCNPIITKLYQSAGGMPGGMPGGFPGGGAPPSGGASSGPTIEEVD", "assay": "Competition ELISA: soluble peptide vs HSC70 binding to immobilized 1097-L", "settings": "for competition of HSC70 binding to immobilized 1097-L (in words): 1 μM HSC70, soluble peptide up to 100 μM", "experimental": "(§1) HSC70, DJA1 and DJA2 were purified as His-tagged proteins, as described. HSC70 was also amplified by PCR with an N-terminal FLAG tag, inserted into pPROEXHTa (Invitrogen) and purified as described. HSC70 was stored in 100 mM KOAc, 20 mM HEPES-KOH pH 7.5, 5 mM MgOAC2 (buffer G), DJA1 and DJA2 in 500 mM NaCl, 20 mM HEPES-KOH pH 7.5, 5 mM MgOAC2 (buffer H). Avi-tagged CFTR NBD1 was purified as described.\n(§2) The CFTR peptide library was designed as 15-mers with 10-residue overlaps covering the cytosolic sequences as in Fig. 1a and Supplemental Table S1. Synthetic peptides (Mimotopes, PepSet purity) contained an N-terminal biotin followed by linker sequence GSGS and the 15-mer sequence. […] Peptides were reconstituted in DMSO or water.\n(§3) For peptide binding, streptavidin-coated black 96-well plates (Nunc Maxisorp, ThermoFisher) were pre-rinsed with PBS containing 0.05% Tween-20 (PBST), and 5 µM biotinylated peptides in 100 µl PBS were bound overnnight at 4 °C with agitation. Plates were washed with PBST and blocked with PBST containing 0.5% bovine serum albumin (BSA) for 1 h. After removal of blocking solution, 100 µl reactions containing chaperones at indicated concentrations were bound for 45 min at room temperature with agitation. HSC70 reactions were in buffer G containing 1 mM ATP, DJA1 and DJA2 reactions were in buffer H. For competition assays, chaperones and peptides were mixed at indicated concentrations immediately before the reactions were added to the plates. For detections, the plates were washed in PBST and 5 μM His-Probe-HRP conjugate (ThermoFisher) in 100 μL PBST added for 15 min with agitation. After washing in PBST, plates were developed using Amplex Red (ThermoFisher) according to manufacturer’s instructions, in a fluorescence plate reader (Tecan M1000).\n(§4) Affinities were determined separately from binding curves and from competition curves. Data from binding of chaperones to immobilized peptides (Fig. 2a,b and Supplemental Fig. S2a–c) were fit to the equation 1/(1 − i) = (C/i)/Kd^B − b, where i is the relative saturation, C is the chaperone concentration (1 μM), Kd^B is the apparent dissociation constant from the binding data. In the plot of 1/(1 − i) against (C/i), the slope is 1/Kd^B, and −b is the intercept. […] In the plot of bi + (C/Kd^B)/i over D, the slope is 1/Kd^C, and e is the intercept. The amount of chaperone bound in the absence of competitor was set as i = 1.\n(§5) Established statistical methods[71]–[73] were used to analyze the data for chaperone binding to the peptide library. First, biological and statistical outliers were identified with the Tukey method in two rounds, for biological and then statistical outliers. […] Binding data were represented as multiples of the standard deviations from the normal means. Binding in the presence of competitor peptides were shown as a fraction of binding in the absence of competitor, or the fraction competed calculated as 1 – fraction bound. Values were compared using a two-tailed unpaired Student’s t-test assuming unequal variance."}, "DJA1 [2]": {"target": "T2, DJA1 (Homo sapiens, UniProt P31689)", "T2 construct": "made in house", "assay": "Competition ELISA: soluble peptide vs DJA1 binding to immobilized 1097-L", "settings": "for competition of DJA1 binding to immobilized 1097-L (in words): 1 μM DJA1, soluble peptide up to 100 μM; for DJA1 binding site by competition screen (in words): 1 μM DJA1, 100 μM soluble peptide, Fig. 3c/5, cutoff twice SD of 733-L, n ≥ 4", "experimental": "as §1, §2, §3, §4, §5"}, "DJA2 [3]": {"target": "T3, DJA2 (Homo sapiens, UniProt O60884)", "T3 construct": "made in house", "T3 sequence (O60884 whole entry)": "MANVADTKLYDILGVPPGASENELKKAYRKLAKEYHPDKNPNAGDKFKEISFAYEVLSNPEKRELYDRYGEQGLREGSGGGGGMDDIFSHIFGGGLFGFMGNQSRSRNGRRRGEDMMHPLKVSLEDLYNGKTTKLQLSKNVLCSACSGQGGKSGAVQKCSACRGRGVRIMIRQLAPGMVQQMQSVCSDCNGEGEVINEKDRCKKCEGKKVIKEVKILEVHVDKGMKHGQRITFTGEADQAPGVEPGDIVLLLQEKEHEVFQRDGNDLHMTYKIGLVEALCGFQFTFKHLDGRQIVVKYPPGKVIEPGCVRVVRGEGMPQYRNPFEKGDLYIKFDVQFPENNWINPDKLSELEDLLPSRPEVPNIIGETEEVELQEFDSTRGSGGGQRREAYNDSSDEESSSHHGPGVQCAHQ", "assay": "Competition ELISA: soluble peptide vs DJA2 binding to immobilized 1097-L", "settings": "for competition of DJA2 binding to immobilized 1097-L (in words): 1 μM DJA2, soluble peptide up to 100 μM; for DJA2 binding site by competition screen (in words): 1 μM DJA2, 100 μM soluble peptide, Fig. 3c/5, cutoff twice SD of 733-L, n ≥ 4", "experimental": "as §1, §2, §3, §4, §5"}, "DJA2 [4]": {"target": "T3, DJA2", "assay": "ELISA binding of DJA2 to immobilized biotinylated CFTR peptides", "settings": "2 μM DJA2, absence of ATP, immobilized 15-mer; n ≥ 3", "experimental": "as §1, §2, §3, §4, §5"}, "DJA1 [5]": {"target": "T2, DJA1", "assay": "ELISA binding of DJA1 to immobilized biotinylated CFTR peptides", "settings": "2 μM DJA1, absence of ATP, immobilized 15-mer; n ≥ 3", "experimental": "as §1, §2, §3, §4, §5"}, "HSC70 [6]": {"target": "T1, HSC70", "assay": "ELISA binding of HSC70 to immobilized biotinylated CFTR peptides", "settings": "2 μM HSC70, with ATP, immobilized 15-mer; n ≥ 3", "experimental": "as §1, §2, §3, §4, §5"}},
  "note": "pKd: −log10 of the molar value. Like-named read-outs stand apart in the source and are kept apart here. Ends that are not written are not given here. Peptide text beside a SMILES is read from it.",
  "data": [
    {"molecule": "CC[C@H](C)[C@H](NC(=O)[C@H](CCCNC(=N)N)NC(=O)[C@H](Cc1c[nH]cn1)NC(=O)[C@H](CCC(=O)O)NC(=O)[C@H](CS)NC(=O)[C@H](CC(C)C)NC(=O)[C@@H](NC(=O)[C@@H](NC(=O)[C@@H](N)[C@@H](C)O)C(C)C)[C@@H](C)CC)C(=O)N[C@@H](CCC(=O)O)C(=O)N[C@@H](C)C(=O)N[C@@H](CCSC)C(=O)N[C@@H](CC(C)C)C(=O)N[C@@H](CCC(=O)O)C(=O)N[C@@H](CS)C(=O)O", "note": "[Peptide 1403-L] (H-TVILCEHRIEAMLEC-OH)", "values": [
      {"measurement": "competition of HSC70 binding to immobilized 1097-L (in words)", "setting": "HSC70 [1]", "value": "competed all of the chaperones well"},
      {"measurement": "competition of DJA1 binding to immobilized 1097-L (in words)", "setting": "DJA1 [2]", "value": "competed all of the chaperones well"},
      {"measurement": "pKd", "setting": "DJA2 [3]", "value": 6.00},
      {"measurement": "competition of DJA2 binding to immobilized 1097-L (in words)", "setting": "DJA2 [3]", "value": "competed all of the chaperones well"}
    ]},
    {"molecule": "EIFESCVCK [Peptide 589-S, NBD1 9-mer]", "values": [
      {"measurement": "DJA2 binding site by competition screen (in words)", "setting": "DJA2 [3]", "value": "DJA2 site"}
    ]},
    {"molecule": "QAFADCTVI [Peptide 1394-S, NBD2 9-mer]", "values": [
      {"measurement": "HSC70 binding site by competition screen (in words)", "setting": "HSC70 [1]; 1 μM HSC70, 100 μM soluble peptide, Fig. 3c/5, cutoff twice SD of 733-L, n ≥ 4", "value": "bound by HSC70, DJA2 and DJA1"},
      {"measurement": "DJA1 binding site by competition screen (in words)", "setting": "DJA1 [2]", "value": "bound by HSC70, DJA2 and DJA1"},
      {"measurement": "DJA2 binding site by competition screen (in words)", "setting": "DJA2 [3]", "value": "bound by HSC70, DJA2 and DJA1"}
    ]},
    {"molecule": "LRWFQMRIE [Peptide 1100-S]", "values": [
      {"measurement": "competition of DJA2 binding to immobilized 1097-L (in words)", "setting": "DJA2 [3]", "value": "competed"}
    ]},
    {"molecule": "SCVCKLMAN [Peptide 593-S, NBD1 9-mer]", "values": [
      {"measurement": "DJA1 binding site by competition screen (in words)", "setting": "DJA1 [2]", "value": "DJA1 site"}
    ]},
    {"molecule": "488-L: NBD1 15-mer 481-495 (KIKHSGRISFCSQFS; UniProt P13569 481-495, looked up, fragment) [Peptide 488-L]", "values": [
      {"measurement": "competition of HSC70 binding to immobilized 1097-L (in words)", "setting": "HSC70 [1]", "value": "competed poorly"},
      {"measurement": "binding in peptide library screen, DJA2 (in words)", "setting": "DJA2 [4]", "value": "binding by DJA1, HSC70 and DJA2, in the original screen"},
      {"measurement": "binding in peptide library screen, DJA1 (in words)", "setting": "DJA1 [5]", "value": "binding by DJA1, HSC70 and DJA2, in the original screen"},
      {"measurement": "competition of DJA1 binding to immobilized 1097-L (in words)", "setting": "DJA1 [2]", "value": "competed poorly"},
      {"measurement": "competition of DJA2 binding to immobilized 1097-L (in words)", "setting": "DJA2 [3]", "value": "competed poorly"},
      {"measurement": "binding in peptide library screen, HSC70 (in words)", "setting": "HSC70 [6]", "value": "binding by DJA1, HSC70 and DJA2, in the original screen"}
    ]},
    {"molecule": "CC[C@H](C)[C@H](NC(=O)[C@@H](NC(=O)[C@@H](NC(=O)[C@H](CS)NC(=O)[C@H](CC(=O)O)NC(=O)[C@H](C)NC(=O)[C@H](Cc1ccccc1)NC(=O)[C@H](C)NC(=O)[C@H](CCC(N)=O)NC(=O)[C@H](CCCCN)NC(=O)[C@H](CC(C)C)NC(=O)[C@@H](NC(=O)[C@@H](N)CCCNC(=N)N)[C@@H](C)O)[C@@H](C)O)C(C)C)C(=O)N[C@@H](CC(C)C)C(=O)N[C@@H](CS)C(=O)O", "note": "[Peptide 1393-L] (H-RTLKQAFADCTVILC-OH)", "values": [
      {"measurement": "competition of HSC70 binding to immobilized 1097-L (in words)", "setting": "HSC70 [1]", "value": "competed all of the chaperones well"},
      {"measurement": "competition of DJA1 binding to immobilized 1097-L (in words)", "setting": "DJA1 [2]", "value": "competed all of the chaperones well"},
      {"measurement": "competition of DJA2 binding to immobilized 1097-L (in words)", "setting": "DJA2 [3]", "value": "competed all of the chaperones well"},
      {"measurement": "pKd", "setting": "DJA2 [3]; read-out: Kd from competition curves, DJA2", "value": 5.83}
    ]}
  ]
}
